Consider two molecules from paper PMC12951562, “SH2scan: Mapping SH2 Domain-Ligand Binding Selectivity for Inhibitors and Degraders” (Journal of Medicinal Chemistry, 2026).

For test [1], the target named is T1, PLCG1(SH2dom.N-term.) (Homo sapiens, UniProt P19174).
T1 construct: SH2dom.N-term. denotes SH2 domain closest to N-terminus of protein; made in house; host or cells: HEK293 (transient transfection, unpurified extract)
T1 sequence (P19174 550-657 limits assumed): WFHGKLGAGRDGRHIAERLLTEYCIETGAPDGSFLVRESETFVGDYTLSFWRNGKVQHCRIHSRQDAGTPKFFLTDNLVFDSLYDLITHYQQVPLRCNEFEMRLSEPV
The experiment in a line: biochemical. The class given is binding.

The target in test [2] is T2, LNK (SH2B3) (Homo sapiens, UniProt Q9UQQ2).
T2 construct: the DNA-tagged SH2 domain concentrations used in this study were <0.1 nM; made in house; host or cells: HEK293 (transient transfection, unpurified extract)
Briefly: biochemical. The format is binding.

Structures are written as SMILES. Non-standard residues stand in square brackets, D forms with d. Residues, ends and D or L forms follow the SMILES beside them. pY = N[C@@H](Cc1ccc(OP(=O)(O)O)cc1)C(=O)O

T2 sequence (Q9UQQ2 364-462 limits assumed): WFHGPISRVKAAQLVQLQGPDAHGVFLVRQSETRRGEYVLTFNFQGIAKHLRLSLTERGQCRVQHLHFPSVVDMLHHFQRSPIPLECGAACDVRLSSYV

For orientation: Kd means the free concentration of one partner at which half of the binding sites on the other are occupied at equilibrium, for simple one-to-one binding. Lower therefore signals a tighter complex. Take `CSCC[C@H](NC(=O)[C@H](CO)NC(=O)[C@H](CC(C)C)NC(=O)[C@H](CC(=O)O)NC(=O)[C@H](CC(C)C)NC(=O)[C@H](Cc1ccc(OP(=O)(O)O)cc1)NC(=O)[C@H](CCC(=O)O)NC(=O)[C@H](CCC(N)=O)NC(=O)[C@H](CC(N)=O)NC(=O)[C@H](CO)NC(=O)[C@@H](NC(C)=O)[C@@H](C)O)C(N)=O` [Ac-TSNQEpYLDLSM-NH2] (Ac-TSNQE[pY]LDLSM-NH2): the Kd in test [1] stood at 116 ± 6.69 nM.
`CC(=O)N[C@@H](CC(N)=O)C(=O)N[C@H](C(=O)NCC(=O)N[C@@H](CC(=O)O)C(=O)N[C@@H](Cc1ccc(OP(=O)(O)O)cc1)C(=O)N[C@@H](Cc1ccc(O)cc1)C(=O)N[C@@H](CC(=O)O)C(=O)N[C@@H](CC(C)C)C(=O)N[C@@H](Cc1ccc(O)cc1)C(=O)NCC(N)=O)[C@@H](C)O` [Ac-NTGDpYYDLYG-NH2] (Ac-NTGD[pY]YDLYG-NH2) came in with a Kd in test [2] of 3220 ± 595 nM.
